In patent publication US20100120858A1, “Piperidine Derivatives” (Pfizer Inc., priority 2006, published 2010):
Counter-ions that a name gives are not always drawn.

Legend:
[1] = target: human norepinephrine transporter (Homo sapiens, UniProt P23975); assay: Human norepinephrine (hNET) receptor binding, [125I]-RTI-55; conditions: membranes of HEK-293 cells transfected with human norepinephrine transporter cDNA; 50 pM [125I]-RTI-55; IC50 converted by Cheng-Prusoff
Method: Cell pastes of human embryonic kidney 293 (HEK-293) cells transfected with a human norepinephrine transporter cDNA were prepared. The cell pastes were resuspended in 400 to 700 mL of Krebs-N-2-hydroxyethylpiperazine-N′-2-ethanesulfonic acid (HEPES) assay buffer (25 mM HEPES, 122 mM NaCl, 3 mM KCl, 1.2 mM MgSO4, 1.3 mM CaCl2, and 11 mM glucose, pH 7.4) with a Polytron homogenizer at setting 7 for 30 seconds. Aliquots of membranes (5 mg/mL protein) were stored in liquid nitrogen until used.
The binding assay was set up in Beckman deep-well polypropylene plates with a total volume of 250 μL containing: test compound (concentration of 10^−5M to 10^−12M), cell membranes, and 50 pM [^125I]-RTI-55 ([^125I]-3 beta-(4-iodophenyl)tropan-2 beta-carboxylic acid methyl ester) (Perkin Elmer, NEX-272; specific activity 2200 Ci/mmol). The reaction was incubated by gentle agitation for 90 minutes at room temperature and was terminated by filtration through Whatman GF/C filter plates using a Brandel 96-well plate harvester. Scintillation fluid (100 μL) was added to each well, and bound [^125I]-RTI-55 was determined using a Wallac Trilux Beta Plate Counter. Test compounds were run in duplicate, and specific binding was defined as the difference between binding in the presence and absence of 10 μM desipramine.
Excel and GraphPad Prism software were used for data calculation and analysis. IC50 values were converted to Ki values using the Cheng-Prusoff equation. The Ki values (nM) for the hNET are reported below in Table 13.

[2] = target: human serotonin transporter (Homo sapiens, UniProt P31645); assay: Human serotonin (hSERT) receptor binding, [125I]-RTI-55; conditions: membranes of HEK-293 cells transfected with human serotonin transporter cDNA, IC50 converted by Cheng-Prusoff
Method: Cell pastes of HEK-293 cells transfected with a human serotonin transporter cDNA were prepared. The cell pastes were resuspended in 400 to 700 ml of Krebs-HEPES assay buffer (25 mM HEPES, 122 mM NaCl, 3 mM KCl, 1.2 mM MgSO4, 1.3 mM CaCl2, and 11 mM glucose, pH 7.4) with a Polytron homogenizer at Setting 7 for 30 seconds. Aliquots of membranes (˜2.5 mg/mL protein) were stored in liquid nitrogen until used.
Assays were set up in FlashPlates pre-coated with 0.1% polyethyleneimine (PEI) in a total volume of 250 μL containing: test compound (concentration 10^−5M to 10^−12M), cell membranes, and […] [^125I]-RTI-55 (Perkin Elmer, NEX-272; specific activity 2200 Ci/mmol). The reaction was incubated and gently agitated for 90 minutes at room temperature, and terminated by removal of assay volume. Plates were covered, and bound [^125I]-RTI-55 was determined using a Wallac Trilux Beta Plate Counter. Test compounds were run in duplicate, and specific binding was defined as the difference between binding in the presence and absence of 10 μM citalopram.
Excel and GraphPad Prism software were used for data calculation and analysis. IC50 values were converted to Ki values using the Cheng-Prusoff equation.

Sequence of human norepinephrine transporter (P23975 whole entry): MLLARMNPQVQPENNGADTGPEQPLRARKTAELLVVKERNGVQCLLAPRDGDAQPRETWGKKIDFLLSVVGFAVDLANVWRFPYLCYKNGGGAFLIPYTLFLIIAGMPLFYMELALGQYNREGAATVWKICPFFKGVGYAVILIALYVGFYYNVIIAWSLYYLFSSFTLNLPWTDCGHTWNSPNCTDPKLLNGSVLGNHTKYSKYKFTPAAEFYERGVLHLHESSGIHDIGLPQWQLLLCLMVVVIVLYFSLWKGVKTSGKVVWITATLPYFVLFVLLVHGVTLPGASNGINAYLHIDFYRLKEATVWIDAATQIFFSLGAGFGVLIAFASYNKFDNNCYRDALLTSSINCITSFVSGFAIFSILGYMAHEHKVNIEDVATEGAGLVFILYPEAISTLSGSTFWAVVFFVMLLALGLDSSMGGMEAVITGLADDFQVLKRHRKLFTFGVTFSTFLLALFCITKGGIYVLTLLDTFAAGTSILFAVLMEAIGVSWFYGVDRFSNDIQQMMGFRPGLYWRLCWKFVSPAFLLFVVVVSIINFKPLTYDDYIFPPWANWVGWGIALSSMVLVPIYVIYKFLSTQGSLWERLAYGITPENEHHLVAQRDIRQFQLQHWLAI
Sequence of human serotonin transporter (P31645 whole entry): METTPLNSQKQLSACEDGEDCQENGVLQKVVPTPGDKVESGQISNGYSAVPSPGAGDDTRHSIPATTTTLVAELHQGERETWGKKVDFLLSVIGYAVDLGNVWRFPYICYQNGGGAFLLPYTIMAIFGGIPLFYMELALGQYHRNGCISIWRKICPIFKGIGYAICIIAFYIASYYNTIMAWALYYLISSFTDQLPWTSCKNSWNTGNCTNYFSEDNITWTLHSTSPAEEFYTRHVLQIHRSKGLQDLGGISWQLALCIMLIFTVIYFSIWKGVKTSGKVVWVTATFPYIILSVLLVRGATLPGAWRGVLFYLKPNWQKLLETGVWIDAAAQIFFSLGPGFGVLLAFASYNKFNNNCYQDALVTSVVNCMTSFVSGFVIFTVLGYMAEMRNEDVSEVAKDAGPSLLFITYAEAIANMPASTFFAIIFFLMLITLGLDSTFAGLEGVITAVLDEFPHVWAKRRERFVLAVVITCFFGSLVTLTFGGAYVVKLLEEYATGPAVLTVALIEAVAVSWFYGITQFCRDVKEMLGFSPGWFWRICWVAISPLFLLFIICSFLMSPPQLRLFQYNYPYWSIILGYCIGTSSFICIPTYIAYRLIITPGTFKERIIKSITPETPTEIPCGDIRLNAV

SMILES	Ki [1] [nM]	Ki [2] [nM]
COc1ccc(OC[C@H]2CCCNC2)c(Oc2ccc(Cl)cc2OC)c1 [Example 32, (S)-3-[2-(4-chloro-2-methoxy-phenoxy)-4-methoxy-phenoxymethyl]-piperidine fumaric acid]	46	120
Fc1cc(Cl)ccc1Oc1cc(Cl)ccc1OC[C@H]1CCCNC1 [Example 33, (S)-3-[4-chloro-2-(4-chloro-2-fluoro-phenoxy)-phenoxymethyl]-piperidine fumaric acid]	32	36
COc1cc(Cl)ccc1Oc1cc(Cl)ccc1OC[C@H]1CCCNC1 [Example 34, (S)-3-[4-chloro-2-(4-chloro-2-methoxy-phenoxy)-phenoxymethyl]-piperidine fumaric acid]	16	21
COc1cc(Cl)ccc1Oc1cc(C(F)(F)F)ccc1OC[C@H]1CCCNC1 [Example 35, (S)-3-[2-(4-chloro-2-methoxy-phenoxy)-4-trifluoromethyl-phenoxymethyl]-piperidine fumaric acid]	250	35
COc1cc(Cl)ccc1Oc1cc(F)ccc1OC[C@H]1CCCNC1 [Example 36, (S)-3-[2-(4-chloro-2-methoxy-phenoxy)-4-fluoro-phenoxymethyl]-piperidine fumaric acid]	830	110
COc1cc(F)ccc1Oc1cc(C(F)(F)F)ccc1OC[C@H]1CCCNC1 [Example 37, (S)-3-[2-(4-fluoro-2-methoxy-phenoxy)-4-trifluoromethyl-phenoxymethyl]-piperidine fumaric acid]	77	22
Fc1ccc(Oc2c(F)cccc2OC[C@H]2CCCNC2)c(Cl)c1 [Example 38, (S)-3-[2-(2-chloro-4-fluoro-phenoxy)-3-fluoro-phenoxymethyl]-piperidine fumaric acid]	3.6	1900
Fc1ccc(Oc2cc(F)ccc2OC[C@H]2CCCNC2)c(Cl)c1 [Example 39, (S)-3-[2-(2-chloro-4-fluoro-phenoxy)-4-fluoro-phenoxymethyl]-piperidine fumaric acid]	802	110
COc1cccc(F)c1Oc1cc(Cl)ccc1OC[C@H]1CCCNC1 [Example 40, (S)-3-[4-chloro-2-(2-fluoro-6-methoxy-phenoxy)-phenoxymethyl]-piperidine fumaric acid]	7.5	14
Cc1ccc(OC[C@H]2CCCNC2)c(Oc2ccc(F)cc2)n1 [Example 41, (S)-2-(4-fluoro-phenoxy)-6-methyl-3-(piperidin-3-ylmethoxy)-pyridine fumaric acid]	3.8	210
Cc1ccc(OC[C@H]2CCCNC2)c(Oc2c(F)cccc2F)n1 [Example 42, (S)-2-(2,6-difluoro-phenoxy)-6-methyl-3-(piperidin-3-ylmethoxy)-pyridine hydrochloride]	3.6	110
Cc1ccc(OC[C@H]2CCCNC2)c(Oc2c(Cl)cccc2Cl)n1 [Example 47, (S)-2-(2,6-dichloro-phenoxy)-6-methyl-3-(piperidin-3-ylmethoxy)-pyridine hydrochloride]	10.4	> 9200
Cc1ccc(OC[C@H]2CCCNC2)c(Oc2c(Cl)cc(F)cc2Cl)n1 [Example 48, (S)-2-(2,6-dichloro-4-fluoro-phenoxy)-6-methyl-3-(piperidin-3-ylmethoxy)-pyridine hydrochloride]	61	> 9200
Cc1ccc(OC[C@H]2CCCNC2)c(Oc2c(F)ccc(F)c2F)n1 [Example 49, (S)-6-methyl-3-(piperidin-3-ylmethoxy)-2-(2,3,6-trifluoro-phenoxy)-pyridine hydrochloride]	6.1	25
Cc1ccc(OC[C@H]2CCCNC2)c(Oc2c(F)ccc(Cl)c2F)n1 [Example 50, (S)-2-(3-chloro-2,6-difluoro-phenoxy)-6-methyl-3-(piperidin-3-ylmethoxy)-pyridine hydrochloride]	5.5	60.3
COc1ccc(Oc2ncccc2OC[C@H]2CCCNC2)cc1 [Example 51, (S)-2-(4-methoxy-phenoxy)-3-(piperidin-3-ylmethoxy)-pyridine fumaric acid]	27	7300

SMILES	Ki [1] [nM]	Ki [2] [nM]
Cc1ccc(Oc2ncccc2OC[C@H]2CCCNC2)cc1 [Example 52, (S)-2-(4-methyl-phenoxy)-3-(piperidin-3-ylmethoxy)-pyridine fumaric acid]	4	5200
Fc1ccc(Oc2ncccc2OC[C@H]2CCCNC2)cc1 [Example 53, (S)-2-(4-fluoro-phenoxy)-3-(piperidin-3-ylmethoxy)-pyridine fumaric acid]	3	7050
Fc1ccc(Oc2ncccc2OC[C@H]2CCCNC2)c(F)c1 [Example 54, (S)-2-(2,4-difluoro-phenoxy)-3-(piperidin-3-ylmethoxy)-pyridine fumaric acid]	3	2700
Clc1ccc(Oc2ncccc2OC[C@H]2CCCNC2)cc1 [Example 55, (S)-2-(4-chloro-phenoxy)-3-(piperidin-3-ylmethoxy)-pyridine fumaric acid]	17	> 10000
N#Cc1ccc(Oc2ncccc2OC[C@H]2CCCNC2)cc1 [Example 57, (S)-4-[3-(piperidin-3-ylmethoxy)-pyridin-2-yloxy]-benzonitrile fumaric acid]	58	> 10000
N#Cc1ccc(Oc2ncccc2OC[C@H]2CCCNC2)cc1C#N [Example 58, (S)-4-[3-(piperidin-3-ylmethoxy)-pyridin-2-yloxy]-phthalonitrile fumaric acid]	1200	3990
N#Cc1ccc(Oc2ncccc2OC[C@H]2CCCNC2)cc1F [Example 61, (S)-2-fluoro-4-[3-(piperidin-3-ylmethoxy)-pyridin-2-yloxy]-benzonitrile fumaric acid]	140	> 10000
COc1cc(C#N)ccc1Oc1ncccc1OC[C@H]1CCCNC1 [Example 62, (S)-3-methoxy-4-[3-(piperidin-3-ylmethoxy)-pyridin-2-yloxy]-benzonitrile fumaric acid]	68	> 10000
Clc1ccc(Oc2ncccc2OC[C@H]2CCCNC2)cc1Cl [Example 64, (S)-2-(3,4-dichloro-phenoxy)-3-(piperidin-3-ylmethoxy)-pyridine fumaric acid]	17	860
CCOc1ncccc1OC[C@H]1CCCNC1 [Example 79, (S)-2-ethoxy-3-(piperidin-3-ylmethoxy)-pyridine fumaric acid]	108	> 10000
CC(C)Oc1ncccc1OC[C@H]1CCCNC1 [Example 80, (S)-2-isopropoxy-3-(piperidin-3-ylmethoxy)-pyridine fumaric acid]	102	> 10000
c1cnc(OC2CCCCC2)c(OC[C@H]2CCCNC2)c1 [Example 81, (S)-2-cyclohexyloxy-3-(piperidin-3-ylmethoxy)-pyridine fumaric acid]	84	6130
CC[C@H](Oc1cccnc1Oc1ccccc1)[C@H]1CCCNC1 [Example 84, (S,S)-2-phenoxy-3-(1-piperidin-3-yl-propoxy)-pyridine fumaric acid]	3	2030
CC[C@H](Oc1cccnc1Oc1ccc(F)cc1)[C@H]1CCCNC1 [Example 85, (S,S)-2-(4-fluoro-phenoxy)-3-(1-piperidin-3-yl-propoxy)-pyridine fumaric acid]	5	2030
CCOc1ncccc1O[C@@H](CC)[C@H]1CCCNC1 [Example 86, (S,S)-2-ethoxy-3-(1-piperidin-3-yl-propoxy)-pyridine fumaric acid]	13	705
CC[C@H](Oc1cccnc1OCC(C)C)[C@H]1CCCNC1 [Example 87, (S,S)-2-isobutoxy-3-(1-piperidin-3-yl-propoxy)-pyridine fumaric acid]	7	350
